Values joined by “and” are separate entries in the source; they are usually repeats but may differ in a detail not shown here. Equal values may be shown once. Where a name gives a salt, the structure may show the parent alone.

One assay has as its target ROCK2 (Homo sapiens (Human), UniProt O75116). The assay can be described thus: FRET-based Z'-Lyte kinase assay, ROCK2.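 Further: kinase phosphorylates a coumarin/fluorescein FRET peptide, then a protease cleaves unphosphorylated peptide, read as donor/acceptor emission ratio after 400 nm excitation.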 Format: biochemical. As to conditions: read-out: IC50 ± SD (μM) ROCK2.
The target in the next assay is ROCK1 (Homo sapiens (Human), UniProt Q13464). Put plainly: FRET-based Z'-Lyte kinase assay, ROCK1.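 On all read-outs here: kinase phosphorylates a coumarin/fluorescein-labelled FRET peptide, then a protease cleaves unphosphorylated peptide, progress read as donor to acceptor emission ratio after 400 nm excitation.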 Type of assay: biochemical. As to conditions: for fold more potent/active than its enantiomer: comparator: enantiomer (1ai for 1ah, 1bf for 1be); for IC50: read-out: IC50 ± SD (μM) ROCK1; for inhibition at 50 µM: read-out: ROCK1 % inhibition @ 50 μM, 50 μM compound.
Chain of ROCK1 (Q13464 whole entry, species assumed): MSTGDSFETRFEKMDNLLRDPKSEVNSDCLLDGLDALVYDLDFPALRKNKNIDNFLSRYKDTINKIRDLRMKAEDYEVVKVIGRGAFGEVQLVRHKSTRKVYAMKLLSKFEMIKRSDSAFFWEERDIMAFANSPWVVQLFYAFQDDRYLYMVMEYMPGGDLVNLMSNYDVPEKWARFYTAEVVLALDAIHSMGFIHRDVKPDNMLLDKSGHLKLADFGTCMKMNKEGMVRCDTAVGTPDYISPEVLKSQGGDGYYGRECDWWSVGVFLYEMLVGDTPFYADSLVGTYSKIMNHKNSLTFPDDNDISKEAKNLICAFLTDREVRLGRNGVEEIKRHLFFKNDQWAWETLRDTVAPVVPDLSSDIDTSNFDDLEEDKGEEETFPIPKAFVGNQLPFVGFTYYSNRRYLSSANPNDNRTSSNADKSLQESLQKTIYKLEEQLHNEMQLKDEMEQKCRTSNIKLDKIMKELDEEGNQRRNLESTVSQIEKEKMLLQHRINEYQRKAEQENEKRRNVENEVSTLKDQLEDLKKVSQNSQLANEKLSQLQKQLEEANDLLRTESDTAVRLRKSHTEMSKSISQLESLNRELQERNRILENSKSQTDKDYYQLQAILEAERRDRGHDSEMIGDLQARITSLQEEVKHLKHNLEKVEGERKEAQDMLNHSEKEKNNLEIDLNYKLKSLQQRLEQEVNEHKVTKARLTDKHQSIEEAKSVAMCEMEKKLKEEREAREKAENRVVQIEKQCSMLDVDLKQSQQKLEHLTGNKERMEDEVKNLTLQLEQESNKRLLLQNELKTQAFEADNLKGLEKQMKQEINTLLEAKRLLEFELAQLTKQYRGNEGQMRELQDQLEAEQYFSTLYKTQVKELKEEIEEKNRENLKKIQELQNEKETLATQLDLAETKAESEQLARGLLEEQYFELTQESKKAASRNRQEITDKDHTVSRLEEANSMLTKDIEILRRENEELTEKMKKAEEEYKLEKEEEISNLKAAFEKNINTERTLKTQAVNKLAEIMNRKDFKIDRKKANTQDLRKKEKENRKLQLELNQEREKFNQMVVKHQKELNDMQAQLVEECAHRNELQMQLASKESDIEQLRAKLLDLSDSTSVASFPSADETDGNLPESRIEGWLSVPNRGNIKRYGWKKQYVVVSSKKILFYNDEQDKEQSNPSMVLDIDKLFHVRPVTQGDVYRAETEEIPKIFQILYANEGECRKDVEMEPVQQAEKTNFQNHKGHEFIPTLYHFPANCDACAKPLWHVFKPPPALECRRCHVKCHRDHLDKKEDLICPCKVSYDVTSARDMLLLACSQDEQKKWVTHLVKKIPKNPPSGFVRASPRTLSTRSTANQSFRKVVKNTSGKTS

Chain of ROCK2 (O75116 whole entry, species assumed): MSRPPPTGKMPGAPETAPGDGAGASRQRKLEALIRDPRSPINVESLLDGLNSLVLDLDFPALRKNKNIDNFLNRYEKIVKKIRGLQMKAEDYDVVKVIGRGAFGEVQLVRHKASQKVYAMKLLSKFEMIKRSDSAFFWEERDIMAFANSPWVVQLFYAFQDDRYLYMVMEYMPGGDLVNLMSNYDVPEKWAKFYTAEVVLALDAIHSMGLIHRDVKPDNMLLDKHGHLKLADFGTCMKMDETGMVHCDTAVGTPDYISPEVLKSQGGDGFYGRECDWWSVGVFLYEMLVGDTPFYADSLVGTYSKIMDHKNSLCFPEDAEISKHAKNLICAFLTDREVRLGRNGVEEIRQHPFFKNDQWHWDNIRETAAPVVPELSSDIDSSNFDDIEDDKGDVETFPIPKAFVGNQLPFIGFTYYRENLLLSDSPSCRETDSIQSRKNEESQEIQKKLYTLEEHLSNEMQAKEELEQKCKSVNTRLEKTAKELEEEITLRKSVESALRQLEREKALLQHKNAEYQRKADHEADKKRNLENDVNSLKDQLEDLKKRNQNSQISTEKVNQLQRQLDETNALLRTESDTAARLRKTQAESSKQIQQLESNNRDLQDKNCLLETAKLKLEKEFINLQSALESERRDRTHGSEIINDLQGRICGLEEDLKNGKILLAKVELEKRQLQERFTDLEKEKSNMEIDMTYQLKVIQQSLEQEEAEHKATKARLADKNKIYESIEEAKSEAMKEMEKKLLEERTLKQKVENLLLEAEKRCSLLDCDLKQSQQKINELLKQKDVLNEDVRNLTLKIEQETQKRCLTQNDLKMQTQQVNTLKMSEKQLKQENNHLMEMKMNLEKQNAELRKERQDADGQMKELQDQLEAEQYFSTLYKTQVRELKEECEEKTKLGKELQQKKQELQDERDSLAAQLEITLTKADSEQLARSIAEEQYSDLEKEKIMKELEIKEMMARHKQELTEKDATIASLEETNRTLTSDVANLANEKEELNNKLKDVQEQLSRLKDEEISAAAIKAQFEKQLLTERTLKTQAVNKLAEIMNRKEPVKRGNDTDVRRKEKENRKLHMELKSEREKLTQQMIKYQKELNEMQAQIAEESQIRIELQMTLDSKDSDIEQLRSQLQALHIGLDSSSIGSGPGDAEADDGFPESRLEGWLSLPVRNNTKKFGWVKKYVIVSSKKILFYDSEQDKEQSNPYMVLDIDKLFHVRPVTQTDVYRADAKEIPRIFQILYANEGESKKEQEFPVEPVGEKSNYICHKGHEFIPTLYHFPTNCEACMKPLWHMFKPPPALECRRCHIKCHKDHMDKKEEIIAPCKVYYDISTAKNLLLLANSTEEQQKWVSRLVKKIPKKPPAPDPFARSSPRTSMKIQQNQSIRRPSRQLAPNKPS
Excerpt for ROCK2: A) In the primary reaction, the Rho kinases phosphorylates a single serine or threonine residue in a synthetic FRET-peptide. This FRET-peptide is doubly labeled with a fluorophore at each end—coumarin (the FRET donor) on one end and fluorescein (the FRET acceptor) on the other—and also contains a single phosphorylation site which either overlaps with or lies adjacent to the proteolytic site. B) In the secondary reaction, a site-specific protease recognizes and cleaves the non-phosphorylated FRET-peptide. Cleavage disrupts FRET between the donor and acceptor fluorophores on the FRET-peptide, whereas uncleaved, phosphorylated FRET-peptides maintain FRET. Kinases phosphorylated FRET-peptides cannot be cleaved by the protease. […] Cleavage disrupts FRET and causes a decrease in the fluorescein fluorescence signal and a strong increase in the coumarin fluorescence signal. Therefore the extension of the phosphprylation can be measured by FRET-signal remaining the protease reaction. The assay uses a ratiometric method, which calculates the ratio of donor emission to acceptor emission (the emission ratio) after excitation of the donor fluorophore at 400 nm, to quantitate reaction progress.
All compounds were systematically screened against ROCK1 and ROCK2.

In the case of `CC[C@@H](NC(=O)Nc1nc(-c2ccncc2)cs1)c1ccccc1` [Compound 1be, (R)-1-(1-Phenylpropyl)-3-(4-(pyridin-4-yl)thiazol-2-yl)urea], the IC50 (in general, the midpoint of a concentration-inhibition curve) at ROCK2 was 0.03 ± 0.01 µM; at ROCK1, 0.09 ± 0.02 µM. Besides, the “fold decrease in ROCK1 activity/potency compared to parent compound 1aa” value (shortened to “fold decrease in ROCK1 activity/potency”) on ROCK1 (comparator 1aa) was 3.5 fold. Besides, on ROCK1, the “fold more potent/active than its enantiomer” value is reported as 745 fold.
`Cc1ccc(CNC(=O)Nc2nc(-c3ccncc3)cs2)cc1` [Compound 1bd, 1-(4-Methylbenzyl)-3-(4-(pyridin-4-yl)thiazol-2-yl)urea]: the IC50 on ROCK2 was 2.05 ± 0.15 µM; at ROCK1, 5.16 ± 0.51 µM.
With `O=C(Nc1nc(-c2ccncc2)cs1)N1CCN(c2ccncc2)CC1` [Compound 12a, 4-(Pyridin-4-yl)-N-(4-(pyridin-4-yl)thiazol-2-yl)piperazine-1-carboxamide], the IC50 is 8.35 ± 2.36 µM at ROCK2 and 16.9 ± 2.11 µM on ROCK1.
Regarding `COc1cccc(CNC(=O)Nc2nc(-c3ccncc3)cs2)c1OC` [Compound 1bc, 1-(2,3-Dimethoxybenzyl)-3-(4-(pyridin-4-yl)thiazol-2-yl)urea], the IC50 at ROCK2 was 19.7 ± 2.94 µM; at ROCK1, 35.4 ± 6.78 µM.
In the case of `Cc1cccc(CNC(=O)Nc2nc(-c3ccncc3)cs2)c1` [Compound 1ba, 1-(3-Methylbenzyl)-3-(4-(pyridin-4-yl)thiazol-2-yl)urea], the IC50 is 0.12 ± 0.03 µM on ROCK2 and 0.46 ± 0.08 µM on ROCK1. Moreover, on ROCK1 (comparator 1aa), the “fold decrease in ROCK1 activity/potency” value is listed as 3 fold.
On to `NC(=O)[C@H](NC(=O)Nc1nc(-c2ccncc2)cs1)c1ccccc1` [Compound 1bv, (R)-2-Phenyl-2-(3-(4-(pyridin-4-yl)thiazol-2-yl)ureido)acetamide], for which the results for the IC50 on ROCK2 and at ROCK1 were 2.1 ± 0.36 µM and 3.7 ± 0.5 µM, respectively.
The corresponding values for `CNc1cccc(CNC(=O)Nc2nc(-c3ccncc3)cs2)c1` [Compound 1bq, 1-(3-(Methylamino)benzyl)-3-(4-(pyridin-4-yl)thiazol-2-yl)urea] are 0.24 ± 0.04 µM and 0.47 ± 0.013 µM.
For `O=C(NCCc1ccccc1)Nc1nc(-c2ccncc2)cs1` [Compound 1aw, 1-Phenethyl-3-(4-(pyridin-4-yl)thiazol-2-yl)urea], the IC50 was determined as 0.38 ± 0.107 µM at ROCK2 and 0.48 ± 0.037 µM on ROCK1. Moreover, the “fold decrease in ROCK1 activity/potency” value at ROCK1 (comparator 1aa) came out at 3 fold.
As for `O=C(Nc1nc(-c2ccncc2)cs1)N[C@H]1CCCc2ccccc21` [Compound 1cw], the IC50 at ROCK2 turned out to be 3.35 ± 0.87 µM; on ROCK1, 6.25 ± 1.36 µM.
For `COc1ccccc1CNC(=O)Nc1nc(-c2ccncc2)cs1` [Compound 1ad, 1-(2-Methoxybenzyl)-3-(4-(pyridin-4-yl)thiazol-2-yl)urea], the IC50 was 0.47 ± 0.03 µM at ROCK2 and 1.4 ± 0.11 µM at ROCK1.
Taken in the same sequence, the figures for `CC(=O)Nc1cccc(CNC(=O)Nc2nc(-c3ccncc3)cs2)c1` [Compound 1ci, N-(3-((3-(4-(pyridin-4-yl)thiazol-2yl)ureido)methyl)phenyl)acetamide hydrochloride] were 0.13 ± 0.02 µM and 1.25 ± 0.21 µM.
The corresponding values for `O=C(NCc1cccc(OC(F)F)c1)Nc1nc(-c2ccncc2)cs1` [Compound 1bs, 1-(3-(Difluoromethoxy)benzyl)-3-(4-(pyridin-4-yl)thiazol-2-yl)urea] are 0.35 ± 0.08 µM and 0.92 ± 0.1 µM.
Turning to `O=C(NCc1cc(F)cc(F)c1)Nc1nc(-c2ccncc2)cs1` [Compound 1cd, 1-(3,5-difluorobenzyl)-3-(4-(pyridin-4-yl)thiazol-2-yl)urea], the IC50 on ROCK2 came out at 0.96 ± 0.56 µM; on ROCK1 it was 4.07 ± 2.76 µM.
The corresponding values for `O=C(NCc1ccc(Cl)cc1)Nc1nc(-c2ccncc2)cs1` [Compound 1ab, 1-(4-Chlorobenzyl)-3-(4-(pyridin-4-yl)thiazol-2-yl)urea] are 1.1 ± 0.16 µM and 2.39 ± 0.53 µM.
Turning to `C[C@H](NC(=O)Nc1nc(-c2ccncc2)cs1)c1cccc(F)c1` [Compound 1cf, (S)-1-(1-(3-fluorophenyl)ethyl)-3-(4-(pyridin-4-yl)thiazol-2-yl)urea], the figures for the IC50 at ROCK2 and on ROCK1 were 11 ± 6.74 µM and 30 ± 10 µM, respectively.
Taken in the same sequence, the figures for `O=C(Nc1nc(-c2ccncc2)cs1)N[C@H]1CCc2ccccc21` [Compound 1cu, (S)-1-(2,3-Dihydro-1H-inden-1-yl)-3-(4-(pyridin-4-yl)thiazol-2-yl)urea] were 1.83 ± 0.56 µM and 3.21 ± 0.9 µM.
For `C[C@@H](NC(=O)Nc1nc(-c2ccncc2)cs1)c1ccccc1` [Compound 1ah, (R)-1-(1-Phenylethyl)-3-(4-(pyridin-4-yl)thiazol-2-yl)urea], the IC50 on ROCK2 was 0.012 ± 0.004 µM; on ROCK1 it was 0.043 µM and 0.019 µM. Besides, at ROCK1 (comparator 1aa), the “fold more potent than parent compound 1aa” value is given as 7 fold. Moreover, on ROCK1, the “fold more potent/active than its enantiomer” value came to 215 fold.
`O=C(NCc1cccc2ccccc12)Nc1nc(-c2ccncc2)cs1` [Compound 1av, 1-(Naphthalen-1-ylmethyl)-3-(4-(pyridin-4-yl)thiazol-2-yl)urea]: the results for the IC50 on ROCK2 and on ROCK1 were 0.58 ± 0.218 µM and 1.1 ± 0.202 µM, respectively.
As for `O=C(NCc1ccco1)Nc1nc(-c2ccncc2)cs1` [Compound 1ak1, 1-(Furan-2-ylmethyl)-3-(4-(pyridin-4-yl)thiazol-2-yl)urea], the IC50 at ROCK2 turned out to be 0.38 ± 0.03 µM; on ROCK1, 1.17 ± 0.15 µM.
For the molecule `O=C(NCc1ccccc1)Nc1nc(-c2ccncc2)cs1` [Compound 1aa, 1-Benzyl-3-(4-(pyridin-4-yl)thiazol-2-yl)urea], the IC50 on ROCK2 is 0.09 µM and 0.05 µM; at ROCK1 it was 0.15 µM and 0.17 µM.
Regarding `O=C(NCc1ccc(F)cc1)Nc1nc(-c2ccncc2)cs1` [Compound 1ak, 1-(4-Fluorobenzyl)-3-(4-(pyridin-4-yl)thiazol-2-yl)urea], the IC50 at ROCK2 is 0.19 µM; at ROCK1 it was 0.57 ± 0.05 µM.
`CCCOc1cccc(CNC(=O)Nc2nc(-c3ccncc3)cs2)c1` [Compound 1bx, 1-(3-propoxybenzyl)-3-(4-(pyridin-4-yl)thiazol-2-yl)urea]: the IC50 at ROCK2 was 0.68 ± 0.43 µM; on ROCK1 it was 3.36 ± 1 µM.
The corresponding values for `COc1ccc([C@@H](C)NC(=O)Nc2nc(-c3ccncc3)cs2)cc1` [Compound 1bz, (R)-1-(1-(4-methoxyphenyl)ethyl)-3-(4-(pyridin-4-yl)thiazol-2-yl)urea] are 11.9 ± 4.69 µM and above 50 µM.
Taken in the same sequence, the figures for `O=C(Nc1nc(-c2ccncc2)cs1)N1CCc2ccccc2C1` [Compound 1cq, N-(4-(Pyridin-4-yl)thiazol-2-yl)-3,4-dihydroisoquinoline-2(1H)-carboxamide] were 1.95 ± 0.389 µM and 3.87 ± 0.351 µM.
With `CC(C)Oc1cccc(CNC(=O)Nc2nc(-c3ccncc3)cs2)c1` [Compound 1bu, 1-(3-Isopropoxybenzyl)-3-(4-(pyridin-4-yl)thiazol-2-yl)urea], the IC50 at ROCK2 turned out to be 3.44 ± 0.87 µM; on ROCK1 it was 13 ± 1.38 µM.
Taken in the same sequence, the figures for `O=C(NCc1ccc(Cl)cc1Cl)Nc1nc(-c2ccncc2)cs1` [Compound 1ag, 1-(2,4-Dichlorobenzyl)-3-(4-(pyridin-4-yl)thiazol-2-yl)urea] were 0.4 ± 0.07 µM and 1.88 ± 0.17 µM.
Turning to `O=C(NCc1cccnc1)Nc1nc(-c2ccncc2)cs1` [Compound 1ao, 1-(Pyridin-3-ylmethyl)-3-(4-(pyridin-4-yl)thiazol-2-yl)urea], the IC50 at ROCK2 came to 0.49 ± 0.07 µM; at ROCK1, 0.91 ± 0.15 µM.
As for `NC(=O)[C@@H](NC(=O)Nc1nc(-c2ccncc2)cs1)c1ccccc1` [Compound 1cp, (S)-2-Phenyl-2-(3-(4-(pyridin-4-yl)thiazol-2-yl)ureido)acetamide], the IC50 on ROCK2 amounted to 0.04 ± 0.016 µM; on ROCK1 it was 0.08 ± 0.01 µM. In addition, the “fold loss of potency compared to 1at” value on ROCK1 (comparator 1at) was 11 fold.
Turning to `O=C(Nc1nc(-c2ccncc2)cs1)Nc1ccccc1Cl` [Compound 6e, 1-(2-Chlorophenyl)-3-(4-(pyridin-4-yl)thiazol-2-yl)urea], the values for the IC50 at ROCK2 and at ROCK1 were 3.75 ± 0.39 µM and 2.49 ± 1.07 µM, respectively.
`C[C@@H](NC(=O)Nc1nc(-c2ccncc2)cs1)c1cccc(Cl)c1` [Compound 1cb, (R)-1-(1-(3-chlorophenyl)ethyl)-3-(4-(pyridin-4-yl)thiazol-2-yl)urea]: the IC50 came to 0.07 ± 0.02 µM on ROCK2 and 0.55 ± 0.32 µM at ROCK1.
The corresponding values for `CS(=O)(=O)Nc1cccc(CNC(=O)Nc2nc(-c3ccncc3)cs2)c1` [Compound 1ch, N-(3-β3-(4-(pyridin-4-yl)thiazol-2-yl)ureido)methyl)phenyl)-methanesulfonamide hydrochloride] are 0.1 ± 0.03 µM and 0.56 ± 0.1 µM.
The corresponding values for `COc1cccc(CNC(=O)N(C)c2nc(-c3ccncc3)cs2)c1` [Compound 1al, 3-(3-Methoxybenzyl)-1-methyl-1-(4-(pyridin-4-yl)thiazol-2-yl)urea] are 0.002 ± 0.0015 µM and 0.06 ± 0.04 µM.
Taken in the same sequence, the figures for `CC[C@H](NC(=O)Nc1nc(-c2ccncc2)cs1)c1ccccc1` [Compound 1bf, (S)-1-(1-Phenylpropyl)-3-(4-(pyridin-4-yl)thiazol-2-yl)urea] were 22 ± 7.79 µM and 52.2 ± 3.64 µM.
As to `COc1ccc(CNC(=O)Nc2nc(-c3ccncc3)cs2)cc1` [Compound 1am-Mes, 1-(4-methoxybenzyl)-3-(4-(pyridin-4-yl)thiazol-2-yl)urea methanesulfonate], the IC50 stood at 7.42 ± 2.29 µM on ROCK2 and 36.2 ± 10 µM at ROCK1.
For `O=C(NCc1cc(Cl)cc(Cl)c1)Nc1nc(-c2ccncc2)cs1` [Compound 1cg, 1-(3,5-dichlorobenzyl)-3-(4-(pyridin-4-yl)thiazol-2-yl)urea], the inhibition (usually the relative decrease from the control value, in per cent) at 50 µM at ROCK1 was -6.26%.
Same read-out and setting: the figure for `O=C(NCc1ccc([N+](=O)[O-])cc1)Nc1nc(-c2ccncc2)cs1` [Compound 1az, 1-(4-Nitrobenzyl)-3-(4-(pyridin-4-yl)thiazol-2-yl)urea] is 34.5%.
For `COc1cccc([C@@H](C)NC(=O)Nc2nc(-c3ccncc3)cs2)c1` [Compound 1bh, (R)-1-(1-(3-Methoxyphenyl)ethyl)-3-(4-(pyridin-4-yl)thiazol-2-yl)urea], at ROCK2, the IC50 was 0.009 ± 0.007 µM.
Regarding `O=C(NC(=O)c1ccccc1)Nc1nc(-c2ccncc2)cs1` [Compound 8, N-(4-(Pyridin-4-yl)thiazol-2-ylcarbamoyl)benzamide], the inhibition at 50 µM on ROCK1 was 16.3%.

These data come from patent US9221808B2, “Pyridylthiazole-based ureas as inhibitors of Rho associated protein kinase (ROCK) and methods of use” (H. Lee Moffitt Cancer Center and Research Institute, Inc., priority 2010, dated 2015).
